Experimental data reported in article PMC4840931 (Clinical cancer research : an official journal of the …, 2015).
Where two headings read alike, the source gives them in different places. Marks after values point to notes of the source that are not given here.

Assays:
[1] = system: human umbilical vein endothelial cell; settings: cited from earlier work
[2] = system: breast cancer (MDA-MB-231) mouse xenograft; settings: cited from earlier work
[3] = system: human lung (H146) mouse xenograft; settings: cited from earlier work
Plasma pharmacokinetics = settings: human, in vivo
[4] = cited from earlier work
[5] = system: patients with advanced solid tumors; format: in vivo
[6] = system: human umbilical vein endothelial cell; settings: cited from earlier work; remark: listed apart in the source
[7] = system: patients with advanced solid tumors; experiment: Tumor response by RECIST version 1.0; format: in vivo, human
[8] = Urinary excretion of unchanged lenvatinib; format: in vivo, human; settings: for fe (fraction of the dose excreted in urine): mean (SD)

Compound: COc1cc2nccc(Oc3ccc(NC(=O)NC4CC4)c(Cl)c3)c2cc1C(N)=O [lenvatinib]
- VEGF-driven human umbilical vein endothelial cell tube formation [1]: inhibits
- Tumor growth [2]: significantly inhibits
- Tumor growth [3]: significantly inhibits
- Accumulation, steady state vs single dose (Plasma pharmacokinetics): 1.5-2.2 fold
- Tmax (Plasma pharmacokinetics): 1.5 to 3 h
- Cmax (Plasma pharmacokinetics; 3.2 mg): 51.4 (30.5) ng/mL
- AUC(0-t) (Plasma pharmacokinetics; 3.2 mg, AUC0-6): 180 ng·h/mL
- AUC(0-t) (Plasma pharmacokinetics; 3.2 mg, AUC0-24): 407 ng·h/mL
- AUC0-24 (Plasma pharmacokinetics; 5 mg): 649.70 (256.151) ng·hr/mL
- AUC(0-t) (Plasma pharmacokinetics; 5 mg, AUC0-6): 245 ng·h/mL
- Cmax (Plasma pharmacokinetics; 5 mg, Cmax): 62.6 ng/mL
- AUC0-6 (Plasma pharmacokinetics; 8 mg): 678 (262) ng·hr/mL
- AUC0-24 (Plasma pharmacokinetics; 8 mg): 1819.57 (735.252) ng·hr/mL
- CL/F (Plasma pharmacokinetics; 8 mg): 8.05 L/h
- Cmax (Plasma pharmacokinetics; 8 mg): 168 (73.4) ng/mL
- Tmax (Plasma pharmacokinetics; 8 mg): 2.5 h
- Vd/F (Plasma pharmacokinetics; 8 mg): 86.8 L
- AUC(0-t) (Plasma pharmacokinetics; 8 mg, AUC0-6): 613 ng·h/mL
- AUC(0-t) (Plasma pharmacokinetics; 8 mg, AUC0-24): 1300 ng·h/mL
- Cmax (Plasma pharmacokinetics; 8 mg, Cmax): 177 ng/mL
- AUC0-6 (Plasma pharmacokinetics; 10 mg): 815(320) ng·hr/mL
- AUC0-24 (Plasma pharmacokinetics; 10 mg): 1984.94 (971.427) ng·hr/mL
- Cmax (Plasma pharmacokinetics; 10 mg): 209 (107) ng/mL
- Tmax (Plasma pharmacokinetics; 10 mg): 2 h
- Vd/F (Plasma pharmacokinetics; 10 mg): 75.4 L
- tmax (Plasma pharmacokinetics; 10 mg): 3.00 (0.00−6.00) hr
- AUC(0-t) (Plasma pharmacokinetics; 10 mg, AUC0-6): 608 ng·h/mL
- AUC(0-t) (Plasma pharmacokinetics; 10 mg, AUC0-24): 1370 ng·h/mL
- Cmax (Plasma pharmacokinetics; 10 mg, Cmax): 167 ng/mL
- Tmax (Plasma pharmacokinetics; 12 mg): 1.5 h
- AUC(0-t) (Plasma pharmacokinetics; 12 mg, AUC0-6): 913 ng·h/mL
- AUC(0-t) (Plasma pharmacokinetics; 12 mg, AUC0-24): 1810 ng·h/mL
- Cmax (Plasma pharmacokinetics; 12 mg, Cmax): 232 ng/mL
- CL/F (Plasma pharmacokinetics; 16 mg): 6.09 L/h
- Vd/F (Plasma pharmacokinetics; 16 mg): 68.5 L
- AUC(0-t) (Plasma pharmacokinetics; 16 mg, AUC0-6): 1510 ng·h/mL
- Cmax (Plasma pharmacokinetics; 16 mg, Cmax): 341 ng/mL
- Effect of co-administration of CYP3A4 inhibitors and inducers on exposure [4]: neither affected
- Study drug–related TEAE, Hypertension, CTCAE grade 3 ([5]; Entire Study Population (N=77)): 13 (16.9) n (%)
- Study drug–related TEAE, Hypertension, CTCAE grade 3+4 ([5]; Entire Study Population (N=77)): 13 (16.9) n (%)
- Study drug–related TEAE, Diarrhea, Total ([5]; Melanoma Expansion Cohort 10.0 mg bid (n=26)): 8 (30.8) n (%)
- Died during therapy or within 30 days of the last treatment ([5]; expanded melanoma cohort (n=26)): 30.8%
- Grade 3 study drug–related toxicity: body weight reduction ([5]; human, in vivo): 8%
- Grade 3 study drug–related toxicity: diarrhea ([5]; human, in vivo): 5%
- Grade 3 study drug–related toxicity: fatigue ([5]; human, in vivo): 7%
- Grade 3 study drug–related toxicity: hypertension ([5]; human, in vivo): 17%
- Grade 3 study drug–related toxicity: proteinuria ([5]; human, in vivo): 5%
- Grade 4 proteinuria, treatment-related ([5]; human, in vivo): 1 event
- Grade 4 reversible posterior leukoencephalopathy syndrome, treatment-related ([5]; human, in vivo): 1 event
- Grade 4 thrombocytopenia, treatment-related ([5]; human, in vivo): 1 event
- Grade 4 thrombotic thrombocytopenic purpura, treatment-related ([5]; human, in vivo): 1 event
- Study drug–related TEAE, Anorexia, CTCAE grade 1 ([5]; human, in vivo): 8 (10.4) n (%)
- Study drug–related TEAE, Anorexia, CTCAE grade 2 ([5]; human, in vivo): 11 (14.3) n (%)
- Study drug–related TEAE, Anorexia, CTCAE grade 3 ([5]; human, in vivo): 0 n (%)
- Study drug–related TEAE, Anorexia, CTCAE grade 3+4 ([5]; human, in vivo): 0 n (%)
- Study drug–related TEAE, Anorexia, CTCAE grade 4 ([5]; human, in vivo): 0 n (%)
- Study drug–related TEAE, Anorexia, Total ([5]; human, in vivo): 19 (24.7) n (%)
- Study drug–related TEAE, Any AE, CTCAE grade 1 ([5]; human, in vivo): 6 (7.8) n (%)
- Study drug–related TEAE, Any AE, CTCAE grade 2 ([5]; human, in vivo): 30 (39.0) n (%)
- Study drug–related TEAE, Any AE, CTCAE grade 3 ([5]; human, in vivo): 28 (36.4) n (%)
- Study drug–related TEAE, Any AE, CTCAE grade 3+4 ([5]; human, in vivo): 32 (41.6) n (%)
- Study drug–related TEAE, Any AE, CTCAE grade 4 ([5]; human, in vivo): 4 (5.2) n (%)
- Study drug–related TEAE, Any AE, Total ([5]; human, in vivo): 68 (88.3) n (%)
- Study drug–related TEAE, Diarrhea, CTCAE grade 1 ([5]; human, in vivo): 7 (9.1) n (%)
- Study drug–related TEAE, Diarrhea, CTCAE grade 2 ([5]; human, in vivo): 6 (7.8) n (%)
- Study drug–related TEAE, Diarrhea, CTCAE grade 3 ([5]; human, in vivo): 4 (5.2) n (%)
- Study drug–related TEAE, Diarrhea, CTCAE grade 3+4 ([5]; human, in vivo): 4 (5.2) n (%)
- Study drug–related TEAE, Diarrhea, CTCAE grade 4 ([5]; human, in vivo): 0 n (%)
- Study drug–related TEAE, Diarrhea, Total ([5]; human, in vivo): 17 (22.1) n (%)
- Study drug–related TEAE, Fatigue, CTCAE grade 1 ([5]; human, in vivo): 10 (13.0) n (%)
- Study drug–related TEAE, Fatigue, CTCAE grade 2 ([5]; human, in vivo): 17 (22.1) n (%)
- Study drug–related TEAE, Fatigue, CTCAE grade 3 ([5]; human, in vivo): 5 (6.5) n (%)
- Study drug–related TEAE, Fatigue, CTCAE grade 3+4 ([5]; human, in vivo): 5 (6.5) n (%)
- Study drug–related TEAE, Fatigue, CTCAE grade 4 ([5]; human, in vivo): 0 n (%)
- Study drug–related TEAE, Fatigue, Total ([5]; human, in vivo): 32 (41.6) n (%)
- Study drug–related TEAE, Hypertension, CTCAE grade 1 ([5]; human, in vivo): 2 (2.6) n (%)
- Study drug–related TEAE, Hypertension, CTCAE grade 2 ([5]; human, in vivo): 18 (23.4) n (%)
- Study drug–related TEAE, Hypertension, CTCAE grade 4 ([5]; human, in vivo): 0 n (%)
- Study drug–related TEAE, Hypertension, Total ([5]; human, in vivo): 33 (42.9) n (%)
- Study drug–related TEAE, Nausea, CTCAE grade 1 ([5]; human, in vivo): 9 (11.7) n (%)
- Study drug–related TEAE, Nausea, CTCAE grade 2 ([5]; human, in vivo): 8 (10.4) n (%)
- Study drug–related TEAE, Nausea, CTCAE grade 3 ([5]; human, in vivo): 2 (2.6) n (%)
- Study drug–related TEAE, Nausea, CTCAE grade 3+4 ([5]; human, in vivo): 2 (2.6) n (%)
- Study drug–related TEAE, Nausea, CTCAE grade 4 ([5]; human, in vivo): 0 n (%)
- Study drug–related TEAE, Nausea, Total ([5]; human, in vivo): 19 (24.7) n (%)
- Study drug–related TEAE, Proteinuria, CTCAE grade 1 ([5]; human, in vivo): 7 (9.1) n (%)
- Study drug–related TEAE, Proteinuria, CTCAE grade 2 ([5]; human, in vivo): 18 (23.4) n (%)
- Study drug–related TEAE, Proteinuria, CTCAE grade 3 ([5]; human, in vivo): 4 (5.2) n (%)
- Study drug–related TEAE, Proteinuria, CTCAE grade 3+4 ([5]; human, in vivo): 5 (6.5) n (%)
- Study drug–related TEAE, Proteinuria, CTCAE grade 4 ([5]; human, in vivo): 1 (1.3) n (%)
- Study drug–related TEAE, Proteinuria, Total ([5]; human, in vivo): 30 (39.0) n (%)
- Study drug–related TEAE, Weight decreased, CTCAE grade 1 ([5]; human, in vivo): 6 (7.8) n (%)
- Study drug–related TEAE, Weight decreased, CTCAE grade 2 ([5]; human, in vivo): 7 (9.1) n (%)
- Study drug–related TEAE, Weight decreased, CTCAE grade 3 ([5]; human, in vivo): 6 (7.8) n (%)
- Study drug–related TEAE, Weight decreased, CTCAE grade 3+4 ([5]; human, in vivo): 6 (7.8) n (%)
- Study drug–related TEAE, Weight decreased, CTCAE grade 4 ([5]; human, in vivo): 0 n (%)
- Study drug–related TEAE, Weight decreased, Total ([5]; human, in vivo): 19 (24.7) n (%)
- Study drug–related toxicity: diarrhea ([5]; human, in vivo): 22%
- Study drug–related toxicity: fatigue ([5]; human, in vivo): 42%
- Study drug–related toxicity: hypertension ([5]; human, in vivo): 43%
- Study drug–related toxicity: nausea ([5]; human, in vivo): 25%
- Study drug–related toxicity: proteinuria ([5]; human, in vivo): 39%
- Dose-limiting toxicities ([5]; in vivo): no DLTs
- Died during therapy or within 30 days of the last treatment ([5]; overall population n=77): 16.9%
- Maximum tolerated dose (MTD) ([5]; po bid, continuous dosing, 28-day cycles): 10 mg
- VEGF-driven human umbilical vein endothelial cell proliferation [6]: inhibits
- Durable SD ≥23 weeks ([7]; all 29 patients with melanoma): 24.1%
- PD ([7]; all 29 patients with melanoma): 17.2%
- PR ([7]; all 29 patients with melanoma): 10.3%
- PRs/uPRs as best response ([7]; all 29 patients with melanoma): 17.2%
- PR or uPR in patients with wild-type BRAF ([7]; expanded melanoma cohort, 3 of 17 patients): 17.6%
- Responses (PR/uPR) by disease: lung ([7]; in vivo): 1/1
- Responses (PR/uPR) by disease: melanoma ([7]; in vivo): 5/29
- Responses (PR/uPR) by disease: ovarian ([7]; in vivo): 1/5
- Responses (PR/uPR) by disease: pancreatic ([7]; in vivo): 1/2
- Responses (PR/uPR) by disease: renal ([7]; in vivo): 1/1
- Responses (PR/uPR) by disease: thyroid ([7]; in vivo): 3/6
- PR/uPR as best response ([7]; overall, n=77): 15.6%
- Total PR/uPR/SD≥23 weeks ([7]; overall, n=77): 40.3%
- Median number of cycles after which confirmed PRs were determined ([7]; overall, range, 4–46 cycles): 18 cycles
- Confirmed PR ([7]; schedule 1, 18 patients): no patient
- PD ([7]; schedule 1, 18 patients): 44.4%
- uPR ([7]; schedule 1, NSCLC): One
- Confirmed PR ([7]; schedule 2, 33 patients): 21.2%
- Durable SD ([7]; schedule 2, 33 patients): 9 patients
- PD ([7]; schedule 2, 33 patients): 18.2%
- fe (fraction of the dose excreted in urine) ([8]; Melanoma Expansion Cohort, Cycle 1 Day 1, 10 mg, n=25): 0.45 (0.282) %
- fe (fraction of the dose excreted in urine) ([8]; Melanoma Expansion Cohort, Cycle 2 Day 1, 10 mg, n=16): 0.95 (0.987) %
- fe (fraction of the dose excreted in urine) ([8]; Schedule 2 continuous daily dosing, Cycle 1 Day 1, 3.2 mg, n=3): 0.37 (0.102) %
- fe (fraction of the dose excreted in urine) ([8]; Schedule 2 continuous daily dosing, Cycle 1 Day 1, 5 mg, n=7): 1.47 (0.685) %
- fe (fraction of the dose excreted in urine) ([8]; Schedule 2 continuous daily dosing, Cycle 1 Day 1, 8 mg, n=10): 0.83^a (0.351) %
- fe (fraction of the dose excreted in urine) ([8]; Schedule 2 continuous daily dosing, Cycle 1 Day 1, 12 mg, n=4): 0.68 (0.283) %
- fe (fraction of the dose excreted in urine) ([8]; Schedule 2 continuous daily dosing, Cycle 2 Day 1, 8 mg, n=6): 1.26 (1.168) %
- fe (fraction of the dose excreted in urine) ([8]; Schedule 2 continuous daily dosing, Cycle 2 Day 1, 16 mg, n=6): 1.35 (0.593) %
- Fraction of the dose excreted unchanged in the urine (fe) ([8]; during the 24 hours following the dose, regardless of dose): < 1.5%
